Assay results published in patent publication US10602758B2, “Methods and compositions for improved taste quality” (Almendra Pte. Ltd, priority 2018, dated 2020).
Peptide text beside a SMILES is read from it.

What was measured:
[1] = cited from earlier work; for Kd, apparent Sweetener/Receptor dissociation constant / Rm, Maximal Response: from R = Rm x C/(kd + C)
[2] = Concentration/Response (C/R) function of sweeteners; assay type: in vivo
Description: In discussion of mid-calorie beverages, it is useful to describe a suitable methodology for definition of the compositions of such caloric/non-caloric sweetener blends. One such system is a previously described Concentration/Response (C/R) function useful for many caloric as well as non-caloric sweeteners (see G. E. DuBois, et al., “A Systematic Study of Concentration-Response Relationships of Sweeteners”, In Sweeteners: Discovery, Molecular Design and Chemoreception, D E Walters, F Orthoefer and G E DuBois, Eds., ACS Symposium Series 450, ACS Books, Washington, D.C., 1990).
The following example serves to show how the C/R function can be utilized in design of a mid-caloric beverage. Assume that the objective is to formulate a 50% calorie-reduced beverage with a blend of sucrose and REBA, where the original full-calorie beverage contained 10.0% sucrose. Assuming there is no synergy between sucrose and REBA, such a blend would require 5.0% sucrose and a concentration of REBA equivalent to 5.0% sucrose in sweetness. The requisite concentration (C) of REBA is easily calculated from its C/R function R=10C/(200+C) as follows: 5.0=10×C/(200+C); and C=200 mg/L.

[3] = test system: human taste testers; experiment: Sensory Testing Methodology: Sweetness Linger of reference standards in water; assay type: in vivo; settings: 10% Sucrose and 500 PPM REBA, perceived sweetness intensity @ 120 sec
Description: In various aspects, the present disclosure pertains to methods of testing the disclosed sweetener compositions, e.g., a sensory methodology or method for sweetener evaluation. In a particular aspect, the sensory methodology used is known as a “Flavor Profile Analysis” as has been previously described (see: B. T. Carr, S. D. Pecore, K. M. Gibes and G. E. DuBois, “Sensory Methods for Sweetener Evaluation”, Chapter 11 In Flavor Measurement, C. T. Ho and C. H. Manley, Eds., Marcel Dekker, New York, N.Y., 1993). The full set of sensory parameters that are assessed in the sensory testing method are: (a) Sweetness Intensity (which can be abbreviated in tables herein as “S”); (b) Sourness Intensity ((which can be abbreviated in tables herein as “So”); (c) Saltiness Intensity (which can be abbreviated in tables herein as “Sa”); (d) Bitterness Intensity (which can be abbreviated in tables herein as “B”); (e) Body/Mouthfeel Intensity (which can be abbreviated in tables herein as “B/MF”); (f) Astringency Intensity (which can be abbreviated in tables herein as “A”); (g) Sweetness Linger (which can be abbreviated in tables herein as “SL”); (h) Sweetness Appearance Time (which can be abbreviated in tables herein as “AT”); and (i) Sweetness Desensitization (which can be abbreviated in tables herein as “SD”). […]

[4] = cited from earlier work; for sweetness potency (sensory evaluations): more potent than sucrose, Crammer and Ikan 1986; for sweetness potency: relative to sucrose
[5] = Dissolution of solid REBD in CAB-K buffer, visual inspection; assay type: physicochemical; settings: 500 PPM in pH 3.1 CAB-K; after standing overnight (about 20 h)
[6] = test system: human taste testers; experiment: Sensory flavor profile analysis, Example 3.2: KCl, MgCl2 or CaCl2 individually at 20 mM with REBA in Citric Acid Buffer (Table 8); assay type: in vivo; settings: used individually at 20 mM
Description: (§1) Representative formulations within the scope of the disclosed formulations were prepared and subjected to sensory testing by the methods described above in the section entitled Testing Methodology, where formulations are rated on a 0-15 scales for the Taste Attributes: Sweetness Intensity (SI), Saltiness Intensity (SaI), Sourness Intensity (SoI), Bitterness Intensity (BI), Astringency Intensity (AI), Body/Mouthfeel Intensity (B/MF) and Sweetness Linger (SL). And, in addition, formulations are rated for the additional Taste Attributes of Sweetness Appearance Time (AT) and Sweetness Desensitization (SD). AT was rated by the verbal descriptors Rapid (R), Delay (D) or SD (Significant Delay) and SD was rated by the verbal descriptors None (N), Slight (S) or Medium (M). In sensory test sessions, the number of samples evaluated was limited to 6. In the initial phase of formulation screening, testing was carried out in triplicate with a single subject extensively experienced in the technique of flavor profile analysis. Following formulation screening, testing on promising formulations was carried out with a trained panel as described above. […]
This study assessed the effect of K^+, Mg^2+, and Ca^2+ (from KCl, MgCl2, and CaCl2 salts) used individually at 20 mM in a disclosed Taste Modulator Composition on the Appearance Time (AT), Sweetness Linger (SL), Body/Mouthfeel (B/MF) and Sweetness Desensitization (SD) of REBA in Citric Acid Buffer.

[7] = test system: human taste testers; experiment: Sensory flavor profile analysis, Example 3.3: KCl, MgCl2 or CaCl2 individually at 30 mM with REBA in Citric Acid Buffer (Table 9); assay type: in vivo; settings: used individually at 30 mM
Description: as §1
This study assessed the effect of K^+, Mg^2+, and Ca^2+ (from KCl, MgCl2, and CaCl2 salts) used individually at 30 mM in a disclosed Taste Modulator Composition on the Appearance Time (AT), Sweetness Linger (SL), Body/Mouthfeel (B/MF) and Sweetness Desensitization (SD) of REBA in Citric Acid Buffer.

[8] = test system: human taste testers; experiment: Sensory flavor profile analysis, Example 3.1: KCl, MgCl2 or CaCl2 individually at <12 mM with REBA in Citric Acid Buffer (Table 7); assay type: in vivo; settings: used individually at <12 mM
Description: as §1
This study assessed the effect of K^+, Mg^2+, and Ca^2+ (from KCl, MgCl2, and CaCl2 salts) used individually in a disclosed Taste Modulator Composition on the Appearance Time (AT), Sweetness Linger (SL), Body/Mouthfeel (B/MF) and Sweetness Desensitization (SD) of REBA in Citric Acid Buffer at moderate concentrations (i.e., <12 mM).

In the case of `COC(=O)[C@H](Cc1ccccc1)NC(=O)[C@@H](N)CC(=O)O` [Aspartame] (H-Asp-Phe-OMe), the “Kd, apparent Sweetener/Receptor dissociation constant” value [1] is given as 560 µg/mL and the “Rm, Maximal Response” value [1] is given as 16.0 Sucrose Equivalents of Sweetness.
For `CC1=CC(=O)[N-]S(=O)(=O)O1.[K+]` [Acesulfame-K], the “Kd, apparent Sweetener/Receptor dissociation constant” value [1] is listed as 470 µg/mL and the “Rm, Maximal Response” value [1] is listed as 11.6 Sucrose Equivalents of Sweetness.
In the case of `C=C1C[C@@]23CC[C@H]4[C@@](C)(CCC[C@@]4(C)C(=O)O[C@@H]4O[C@H](CO)[C@@H](O)[C@H](O)[C@H]4O)[C@@H]2CC[C@]1(O[C@@H]1O[C@H](CO)[C@@H](O)[C@H](O[C@@H]2O[C@H](CO)[C@@H](O)[C@H](O)[C@H]2O)[C@H]1O[C@@H]1O[C@H](CO)[C@@H](O)[C@H](O)[C@H]1O)C3` [Rebaudioside A], the sweetness intensity equivalent ([2]; 500 mg/L REBA, from C/R function R=10.0C/(200+C)) is reported as 7.14 % sucrose, the “requisite concentration (C) equivalent to 5.0% sucrose in sweetness” value ([2]; calculated from C/R function R=10C/(200+C)) is reported as 200 mg/L and the “SL (Sweetness Linger)” value [3] is reported as 5. For the same compound, the “Kd, apparent Sweetener/Receptor dissociation constant” value [1] was 200 µg/mL, the “Rm, Maximal Response” value [1] was 10 Sucrose Equivalents of Sweetness and the “sweetness potency (sensory evaluations)” value [4] was 350-450 times.
In the case of `C=C1C[C@@]23CC[C@H]4[C@@](C)(CCC[C@@]4(C)C(=O)O[C@@H]4O[C@H](CO)[C@@H](O)[C@H](O)[C@H]4O)[C@@H]2CC[C@]1(O[C@@H]1O[C@H](CO)[C@@H](O)[C@H](O)[C@H]1O[C@@H]1O[C@H](CO)[C@@H](O)[C@H](O)[C@H]1O)C3` [Stevioside], the sweetness potency [4] is listed as 110-270 times.
In the case of `C[C@H](CC[C@@H](O[C@@H]1O[C@H](CO[C@@H]2O[C@H](CO)[C@@H](O)[C@H](O)[C@H]2O)[C@@H](O)[C@H](O)[C@H]1O[C@@H]1O[C@H](CO)[C@@H](O)[C@H](O)[C@H]1O)C(C)(C)O)[C@H]1CC[C@@]2(C)[C@@H]3CC=C4[C@@H](CC[C@H](O[C@@H]5O[C@H](CO[C@@H]6O[C@H](CO)[C@@H](O)[C@H](O)[C@H]6O)[C@@H](O)[C@H](O)[C@H]5O)C4(C)C)[C@]3(C)[C@H](O)C[C@]12C` [mogroside V, mogro-3-O-[β-D-glucopyranosyl (1-6)-β-D-glucopyranoside]-24-O-{[β-D-glucopyranosyl(1-2)]-[?-D-glucopyranosyl(1-6)]-β-D-gluco-pyranoside}], the sweetness ([4]; times cane sugar on a weight basis, estimated) is listed as “approximately 250 times”.
With `C=C1C[C@@]23CC[C@H]4[C@@](C)(CCC[C@@]4(C)C(=O)O[C@@H]4O[C@H](CO)[C@@H](O)[C@H](O)[C@H]4O[C@@H]4O[C@H](CO)[C@@H](O)[C@H](O)[C@H]4O)[C@@H]2CC[C@]1(O[C@@H]1O[C@H](CO)[C@@H](O)[C@H](O[C@@H]2O[C@H](CO)[C@@H](O)[C@H](O)[C@H]2O)[C@H]1O[C@@H]1O[C@H](CO)[C@@H](O)[C@H](O)[C@H]1O)C3` [Rebaudioside D] the appearance of solution [5] was “still cloudy”.
In the case of `[Cl-].[K+]` [K^+, Potassium Chloride], the “effect on the AT, SL, B/MF and SD of REBA” value (“effect … B/MF and SD of REBA” below) [6] is reported as “modestly affected”, the “effect … B/MF and SD of REBA” value [7] is reported as “do affect” and the “effect … B/MF and SD of REBA” value [8] is reported as “did not significantly affect”.
In the case of `OC[C@H]1O[C@@](CO)(O[C@H]2O[C@H](CO)[C@@H](O)[C@H](O)[C@H]2O)[C@@H](O)[C@@H]1O` [Sucrose, reference compound], the “C/R Function” value ([1]; R in Sucrose Equivalents of Sweetness, C in % (w/v) for sugars, in mg/L for HP sweeteners) is listed as “R = C”.
With `[Cl-].[Cl-].[Mg+2]` [Mg^2+, Magnesium Chloride] the “effect … B/MF and SD of REBA” value [6] was “modestly affected”, the “effect … B/MF and SD of REBA” value [7] was “do affect” and the “effect … B/MF and SD of REBA” value [8] was “did not significantly affect”.
In the case of Rebaudioside C, the sweetness potency [4] is given as 40-60 times.
In the case of Rebaudioside B, the “sweetness potency (sensory evaluations)” value [4] is given as 300-350 times.
For `C=C1C[C@@]23CC[C@H]4[C@@](C)(CCC[C@@]4(C)C(=O)O[C@@H]4O[C@H](CO)[C@@H](O)[C@H](O)[C@H]4O)[C@@H]2CC[C@]1(O[C@@H]1O[C@H](CO)[C@@H](O)[C@H](O)[C@H]1O[C@@H]1O[C@@H](C)[C@H](O)[C@@H](O)[C@H]1O)C3` [Dulcoside A], the sweetness potency [4] is listed as 30 times.
In the case of `[Ca+2].[Cl-].[Cl-]` [Ca^2+, Calcium Chloride], the “effect … B/MF and SD of REBA” value [6] is reported as “modestly affected”, the “effect … B/MF and SD of REBA” value [7] is reported as “do affect” and the “effect … B/MF and SD of REBA” value [8] is reported as “did not significantly affect”.
